From ChEMBL document CHEMBL1139189, “Preparation of novel antibacterial agents. Replacement of the central aromatic ring with heterocycles” (2007) come the findings set out here.

What all share (format): functional
The subject of experiment [1] is Haemophilus influenzae. Kind of experiment: Antibacterial activity against Haemophilus influenzae 30063.
Experiment [2] has as its system Staphylococcus aureus. Kind of experiment: Antibacterial activity against Staphylococcus aureus UC 9218.
In experiment [3] the test system is Enterococcus faecalis. Kind of experiment: Antibacterial activity against Enterococcus faecalis UC 9217.
Experiment [4] relates to Streptococcus pneumoniae. Kind of experiment: Antibacterial activity against Streptococcus pneumoniae UC 9912.
Experiment [5] relates to Staphylococcus epidermidis. Kind of experiment: Antibacterial activity against Staphylococcus epidermidis UC 12084.
In experiment [6] the test system is Staphylococcus aureus. Briefly: Antibacterial activity against Staphylococcus aureus UC 9218 in presence of 10% human serum.
Experiment [7] relates to Staphylococcus aureus. Briefly: Antibacterial activity against Staphylococcus aureus UC 9218 in presence of 5% human serum.

Values after ≈ are worked out from the molar mass of the structure shown.

In the case of `CCCN(CCC)S(=O)(=O)c1ccc(C(=O)Oc2cc3ccccc3cc2C(=O)Oc2cc3ccccc3cc2C(=O)O)cc1`, the MIC was above 128 µg/mL in experiment [1]; 16 µg/mL (≈ 25.6 µM) in experiment [2]; 32 µg/mL (≈ 51.1 µM) in experiment [3]; 8 µg/mL (≈ 12.8 µM) in experiment [4]; 16 µg/mL (≈ 25.6 µM) in experiment [5].
With `N#Cc1ccc(NC(=O)c2cc3ccccc3o2)c(C(=O)O)c1`, the MIC came out at 32 µg/mL in experiment [6] and 2 µg/mL (≈ 6.53 µM) in experiment [2].
With `CCCC(CCC)NS(=O)(=O)c1ccc(C(=O)Nc2cc3ccccc3cc2C(=O)O)cc1`, the MIC in experiment [1] is above 128 µg/mL; in experiment [2], 64 µg/mL (≈ 137 µM); in experiment [3], 128 µg/mL (≈ 273 µM); in experiment [4], 64 µg/mL (≈ 137 µM); in experiment [5] it was 16 µg/mL (≈ 34.1 µM); in experiment [7] it was above 128 µg/mL.
For `N#Cc1ccc(NC(=O)c2coc(-c3ccccc3)n2)c(C(=O)O)c1`, the results for the MIC in experiment [6] and in experiment [2] were above 128 µg/mL and 64 µg/mL (≈ 192 µM), respectively.
Taken in the same sequence, the figures for `N#Cc1ccc(NC(=O)c2noc(-c3ccccc3)n2)c(C(=O)O)c1` were 32 µg/mL and 4 µg/mL (≈ 12 µM).
Consider `N#Cc1ccc(NC(=O)c2nc(-c3ccccc3)cs2)c(C(=O)O)c1`, for which the MIC in experiment [6] was 32 µg/mL; in experiment [2], 8 µg/mL (≈ 22.9 µM).
On the same counts, the results for `N#Cc1ccc(NC(=O)c2cc3cccnc3s2)c(C(=O)O)c1` are 32 µg/mL and 4 µg/mL (≈ 12.4 µM).
On the same counts, the results for `Cc1coc2cnc(C(=O)Nc3ccc(C#N)cc3C(=O)O)cc12` are 64 µg/mL and 16 µg/mL (≈ 49.8 µM).
For `N#Cc1ccc(NC(=O)c2cc(-c3ccccc3)no2)c(C(=O)O)c1`, the MIC in experiment [6] turned out to be 8 µg/mL; in experiment [2], 0.5 µg/mL (≈ 1.5 µM).
On the same counts, the results for `CCOc1nc(SCc2ccccc2)ncc1C(=O)Nc1ccc(C#N)cc1C(=O)O` are above 128 µg/mL and 8 µg/mL (≈ 18.4 µM).
On to `N#Cc1ccc(NC(=O)c2cc(SCc3ccccc3)on2)c(C(=O)O)c1`, for which the MIC is 4 µg/mL in experiment [6]; 0.125 µg/mL (≈ 0.329 µM) in experiment [2]; above 128 µg/mL in experiment [3]; above 128 µg/mL in experiment [4]; 0.125 µg/mL (≈ 0.329 µM) in experiment [5].
As for `N#Cc1ccc(NC(=O)c2ncc(-c3ccccc3)s2)c(C(=O)O)c1`, the values for the MIC in experiment [6] and in experiment [2] were 16 µg/mL and 1 µg/mL (≈ 2.86 µM), respectively.
On the same counts, the results for `N#Cc1ccc(NC(=O)c2cnccn2)c(C(=O)O)c1` are above 128 µg/mL and 128 µg/mL (≈ 477 µM).
Regarding `N#Cc1ccc(NC(=O)c2nsc(-c3ccccc3)c2Cl)c(C(=O)O)c1`, the MIC in experiment [6] is 32 µg/mL; in experiment [2] it was 0.5 µg/mL (≈ 1.3 µM).
Taken in the same sequence, the figures for `N#Cc1ccc(NC(=O)c2cc3ccccc3[nH]2)c(C(=O)O)c1` were 32 µg/mL and 2 µg/mL (≈ 6.55 µM).
Taken in the same sequence, the figures for `N#Cc1ccc(NC(=O)c2cc3cc(-c4ccccc4)oc3cn2)c(C(=O)O)c1` were above 128 µg/mL and above 128 µg/mL.
On the same counts, the results for `N#Cc1ccc(NC(=O)c2nc3ccccc3s2)c(C(=O)O)c1` are 8 µg/mL and 0.25 µg/mL (≈ 0.773 µM).
`N#Cc1ccc(NC(=O)c2ncc(-c3ccccc3)o2)c(C(=O)O)c1`: the MIC in experiment [6] was 8 µg/mL; in experiment [2], 0.5 µg/mL (≈ 1.5 µM).
On the same counts, the results for `N#Cc1ccc(NC(=O)c2cc(-c3ccccc3)on2)c(C(=O)O)c1` are 8 µg/mL and 0.25 µg/mL (≈ 0.75 µM).
As for `O=C(Nc1ccc(Br)cc1C(=O)O)c1ccc(S(=O)(=O)N2CCc3cc(Cl)ccc32)cc1`, the MIC in experiment [1] was 128 µg/mL (≈ 239 µM); in experiment [2], 0.5 µg/mL (≈ 0.933 µM); in experiment [3], 32 µg/mL (≈ 59.7 µM); in experiment [4], 4 µg/mL (≈ 7.47 µM); in experiment [5], 4 µg/mL (≈ 7.47 µM); in experiment [7] it was above 128 µg/mL.
As for `N#Cc1ccc(NC(=O)c2noc3ccccc23)c(C(=O)O)c1`, the figures for the MIC in experiment [6] and in experiment [2] were 16 µg/mL and 0.5 µg/mL (≈ 1.63 µM), respectively.
Regarding `CN[C@H](CC(C)C)C(=O)N[C@H]1C(=O)N[C@@H](CC(N)=O)C(=O)N[C@H]2C(=O)N[C@H]3C(=O)N[C@H](C(=O)N[C@H](C(=O)O)c4cc(O)cc(O)c4-c4cc3ccc4O)[C@H](O)c3ccc(c(Cl)c3)Oc3cc2cc(c3O[C@@H]2O[C@H](CO)[C@@H](O)[C@H](O)[C@H]2O[C@H]2C[C@](C)(N)[C@H](O)[C@H](C)O2)Oc2ccc(cc2Cl)[C@H]1O` [VANCOMYCIN], the MIC in experiment [1] is 0.015 µg/mL (≈ 0.0104 µM); in experiment [3], 1 µg/mL (≈ 0.69 µM); in experiment [4], 0.25 µg/mL (≈ 0.173 µM).
In the case of `Cc1nn(-c2ccccc2)nc1C(=O)Nc1ccc(C#N)cc1C(=O)O`, the values for the MIC in experiment [6] and in experiment [2] were above 128 µg/mL and 4 µg/mL (≈ 11.5 µM), respectively.
